Among the data in article PMC11597202, “Novel Thiazole-Fused [4,5-g] or [5,4-g]Quinazolin-8-ones and Their Quinazoline Analogues: Synthesis and Biological Evaluation” (Pharmaceuticals, 2024) are remaining activity and IC50 values, retold here.

By IC50 is commonly meant the concentration that inhibits the measured activity by half.

SMILES strings stand for the structures.

One series deals with T1, DYRK1A (Homo sapiens, UniProt Q13627).
T1 construct: host or cells: Sf9 insect cells (baculovirus)
Description: ADP-Glo kinase inhibition assay, DYRK1A. It counts as biochemical. The conditions noted are these: percentage of maximum activity of the DMSO control, mean n = 2, 10 µM ATP, read-out: Residual activity DYRK1A; for remaining activity at 1 µM: 1 μM compound; for remaining activity at 10 µM: 10 μM compound. As for the experimental part: Kinase enzymatic activities were assayed in 384-well plates using the ADP-Glo^TM assay kit (Promega, Madison, WI, USA) according to the recommendations of the manufacturer. This luminescent ADP detection assay was described by Zegzouti and co-workers and provides a homogeneous and high-throughput screening method to measure kinase activity by quantifying the amount of ADP produced during a kinase reaction. Briefly, the reactions were carried out in a final volume of 6 µL for 30 min at 30 °C in an appropriate kinase buffer (10 mM MgCl2, 1 mM EGTA, 1 mM DTT, 25 mM Tris-HCl pH 7.5, 50 µg/mL heparin), with peptide or protein as substrate in the presence of 10 µM ATP. Peptide substrates were obtained from ProteoGenix (Schiltigheim, France) or Sigma for Histone H1, Poly (L-glutamic acid–L-tyrosine) sodium salt, Casein and MBP. After that, 6 µL of ADP-Glo^TM Kinase Reagent was added to stop the kinase reaction. After an incubation time of 50 min at room temperature (rt), 12 µL of Kinase Detection Reagent was added for one hour at rt. The transmitted signal was measured using the Envision (PerkinElmer, Waltham, MA, USA) microplate luminometer and expressed as Relative Light Units (RLUs). Kinase activities are expressed as percentages of remaining kinase activities detected after treatment with 1 or 10 µM of the tested compounds. The maximum kinase activity was measured in the absence of inhibitor but with an equivalent dose of DMSO (solvent of the tested compounds).
3. Kinase inhibition assays
Kinase enzymatic activities were assayed in 384-well plates using the ADP-GloTM assay kit (Promega, Madison, WI) according to the recommendations of the manufacturer. This luminescent ADP detection assay was described by Zegzouti and co-workers and provides a homogeneous and high-throughput screening method to measure kinase activity by quantifying the amount of ADP produced during a kinase reaction. Briefly, the reactions were carried out in a final volume of 6 µl for 30 min at 30°C in appropriate kinase buffer (10 mM MgCl2, 1 mM EGTA, 1 mM DTT, 25 mM Tris-HCl pH 7.5, 50 µg/mL heparin), with peptide or protein as substrate in the presence of 10 µM ATP. Peptide substrates were obtained from ProteoGenix (Schiltigheim, France) or Sigma for Histone H1, Poly (L-glutamic acid – L-tyrosine) sodium salt, Casein and MBP. After that, 6 µL of ADP-GloTM Kinase Reagent was added to stop the kinase reaction. After an incubation time of 50 min at room temperature (rt), 12 µL of Kinase Detection Reagent was added for 1 h at rt. The transmitted signal was measured using the Envision (PerkinElmer, Waltham, MA) microplate luminometer and expressed in Relative Light Unit (RLU). Kinase activities are expressed in percentages of remaining kinase activities detected after treatment with 1 or 10 µM of the tested compounds. The maximal kinase activity is measured in the absence of inhibitor but with an equivalent dose of DMSO (solvent of the tested compounds).
Table. Human protein kinases tested in the panel: CDK9, HASPIN, PIM1, GSK3b, CK1ε, JAK3, CLK1 […]
1 Peptide substrates were obtained from ProteoGenix (Schiltigheim, France) or Sigma for Histone H1, Poly (L-glutamic acid – L-tyrosine) sodium salt, Casein and MBP; 2 “Sp” stands for phosphorylated serine.
Controls inhibitors: To validate each kinase assay, the following model inhibitors were used under the same conditions than the tested compounds: Staurosporine from Streptomyces sp.
(In general: ADP-Glo turns the ADP formed in a reaction into a luminescent signal.)

A short description of series [1]: In vitro cytotoxic assay, Huh7-D12. Type of series: cell-based. The conditions noted are these: human, Huh7-D12 cells (liver cancer cell line). Here is the method:
(§1) Skin normal fibroblastic cells were purchased from Lonza (Basel, Switzerland). […] All culture media were supplemented by 10% of FBS, 1% of penicillin–streptomycin and 2 mM glutamine.
(§2) Chemicals were solubilized in DMSO at a concentration of 10 mM (stock solution) and diluted in culture medium to the desired final concentrations. […] Cells were plated in 96-well plates (4000 cells/well). Twenty-four hours after seeding, the cells were exposed to chemicals. […] Image acquisition and analysis were performed using a Cellomics ArrayScan VTI/HCS Reader (ThermoScientific, Les Ulis, France). The survival percentages were calculated as the percentage of cell number after compound treatment over cell number after DMSO treatment. The relative IC50 values were calculated using the curve fitting XLfit 5.5.0.5 (idbs) integrated in Microsoft Excel as an add-on.
(§3) 4.3.1. Cell culture. Skin normal fibroblastic cells are purchased from Lonza (Basel, Switzerland). Huh7- […]
(§4) from ATCC (American Type Culture Collection). […]
(§5) supplemented by 10% of FBS, 1% of penicillin-streptomycin and 2 mM glutamine.
(§6) 4.3.2. Cytotoxic assay. Chemicals were solubilized in DMSO at a concentration of 10 mM (stock solution) and diluted in culture medium to the desired final concentrations. The dose effect cytotoxic assays (IC50 determination) were performed by increasing the concentrations of each chemical (final well […]
(§7) Cells were plated in 96-well plates
(§8) (4000 cells/well). Twenty-four hours after seeding, cells were exposed to chemicals. After 48h of treatment, cells were washed in PBS and fixed in cooled 90% ethanol/5% acetic acid for 20 min and the […]
(§9) Image acquisition and analysis were performed using a Cellomics ArrayScan VTI/HCS Reader (ThermoScientific). The survival percentages were calculated as the percentage of cell number after compound treatment over cell number after DMSO treatment. The relative IC50 were calculated using the curve fitting XLfit 5.5.0.5 (idbs) integrated in Microsoft Excel as an add-on. The 4 Parameter Logistic Model or Sigmoidal Dose-Response Model describing the sigmoid-shaped response pattern was used (fit = (A+[(B-A)/(1+[(C/x)^D])]) where fit is the response and X is the tested concentration of the compound. The lower asymptote is A (also referred to as the bottom of the curve or lower plateau or the min) and the upper asymptote is B (also referred to as the top of the curve or upper plateau or the max). The slope of the linear part of the curve is described by the factor D. The parameter C is the concentration corresponding to the response midway between A and B. C is called “relative IC50” because it refers to the maximum response obtained by a […]
(§10) The results are represented as the mean ± standard error (SE) calculated from at least three independent experiments.

The nature of series [2]: In vitro cytotoxic assay, MDA-MB-468. It counts as cell-based. As to conditions: human, MDA-MB-468 cells (breast cancer cell line); read-out: In vitro cytotoxic activity IC50, MBA-MB4-68. Here is the method:
as §1, §2, §3, §4, §5, §6, §7, §8, §9, §10

In the case of `COC(=N)c1nc2ccc3c(=O)n(Cc4ccccc4)cnc3c2s1` [Compound 6d, Methyl 7-benzyl-6-oxo-6,7-dihydrothiazolo[4,5-h]quinazoline-2-carbimidate], at DYRK1A, the remaining activity at 1 µM was 83% and the remaining activity at 10 µM was found to be 63%. This compound displayed an IC50 at 48 h in series [1] of 9 µM. Besides, the IC50 at 48 h in series [2] was found to be 5 µM.
For the compound `COC(=N)c1nc2cc3c(Nc4ccc(OC)cc4F)ncnc3cc2s1` [Compound 15a, Methyl 8-[(2-fluoro-4-methoxyphenyl)amino]thiazolo[4,5-g]quinazoline-2-carbimidate], at DYRK1A, the remaining activity at 1 µM was 72% and the remaining activity at 10 µM was 27%. Inhibition in series [1] was half-maximal at 8 µM (IC50 at 48 h).
Take `COC(=N)c1nc2cc3c(=O)n(Cc4ccccc4)cnc3cc2s1` [Compound 6a, Methyl 7-benzyl-8-oxo-7,8-dihydrothiazolo[4,5-g]quinazoline-2-carbimidate]: on DYRK1A, the remaining activity at 1 µM stood at 100% and the remaining activity at 10 µM is 103%. The compound further returned an IC50 at 48 h in series [1] of more than 25 µM. In series [2], the IC50 at 48 h was determined as 19 µM.
The corresponding values for `COC(=N)c1nc2ccc3ncn(Cc4ccccc4)c(=O)c3c2s1` [Compound I, methyl 8-benzyl-9-oxo-8,9-dihydrothiazolo[5,4-f]quinazoline-2-carbimidate, reference compound] are 62%, 21%, 15 µM and 21 µM.
As for `COC(=N)c1nc2ccc3ncnc(Nc4ccc(OC)cc4F)c3c2s1` [Compound II, methyl 9-[(2-fluoro-4-methoxyphenyl)amino]thiazolo[5,4-f]quinazoline-2-carbimidate, reference compound], the figures for the IC50 at 48 h in series [1] and in series [2] were 5 µM and 9 µM, respectively.
Regarding `COC(=N)c1nc2cc3ncnc(Nc4ccc(OC)cc4F)c3cc2s1` [Compound 15b, Methyl 8-[(2-fluoro-4-methoxyphenyl)amino]thiazolo[5,4-g]quinazoline-2-carbimidate], at DYRK1A, the remaining activity at 1 µM is 95% and the remaining activity at 10 µM was 101%.
With `COC(=N)c1nc2cc3ncn(Cc4ccccc4)c(=O)c3cc2s1` [Compound 6b, Methyl 7-benzyl-8-oxo-7,8-dihydrothiazolo[5,4-g]quinazoline-2-carbimidate], on DYRK1A, the remaining activity at 1 µM was determined as 103%. Besides, the remaining activity at 10 µM on DYRK1A worked out at 109%. Besides, the IC50 at 48 h in series [1] and in series [2] was 1 µM each time.
For the compound `COC(=N)c1nc2c(ccc3c(=O)n(Cc4ccccc4)cnc32)s1` [Compound 6c, Methyl 7-benzyl-6-oxo-6,7-dihydrothiazolo[5,4-h]quinazoline-2-carbimidate], the remaining activity at 1 µM on DYRK1A came to 100%. In addition, the remaining activity at 10 µM at DYRK1A came to 68%. Besides, the results for the IC50 at 48 h in series [1] and in series [2] were 10 µM and 13 µM, respectively.
